# Data taken from publication PMC11023993, “Piperine, quercetin, and curcumin identified as promising natural products for topical treatment of cutaneous leishmaniasis” (Parasitology Research, 2024).
# Like-named read-outs stand apart in the source and are kept apart here.
# Legend:
# [1] = MTT cytotoxicity assay in uninfected U-937 macrophages; conditions: human
# Method: (§1) U-937 (CRL-1593.2™) macrophages (ATCC, Manassas, VA, USA) were cultured in RPMI-1640 medium supplemented with 10% of FBS and incubated at 37 °C in 5% CO2, 95% humidity atmosphere. U-937 cells in the exponential growth phase were recovered, and washed by centrifugation at 1800 rpm for 10 min at room temperature; the pellet was then resuspended in supplemented RPMI 1640 medium and counted in a Neubauer chamber. The number was adjusted to 1 × 10^6 cells per mL and 100 µL was dispensed into each well of a 96-well plate. Then, another 100 µL of each serial dilution of QUE, PIP, CUR, doxorubicin, and amphotericin B was added to each well by triplicate and plates were incubated at 37 °C 5% CO2, 95% humidity atmosphere for 48 h.
# (§2) The MTT solution is then added to the treated cells, where the yellow MTT is reduced to purple formazan by a variety of mitochondrial and cytosolic enzymes that are operational in viable cells. After 3 h of incubation with MTT, the formazan precipitates. Consequently, the growing medium was removed, the formazan was dissolved in DMSO, and the absorbance of the solution was measured at 570 nm using a microplate reader spectrophotometer (Varioskan Flash, Thermo Fisher Scientific).
# (§3) Cells exposed to the standard cytotoxic drug doxorubicin were used as an internal control for toxicity (positive control) while cells incubated in the absence of any compound or drug were used as a control for viability (negative control). A solution of 0.5% DMSO was used as a blank solution. Non-specific absorbance was corrected by subtracting absorbance (OD) of the blank. Determinations were done by triplicate in at least two independent experiments.
# (§4) The OD of viable cells that remained after treatment was compared to the OD of control cells that were not exposed to the drug. The LC50 (median lethal concentration) values and their statistical errors were calculated based on triplicates of the measurement in the independent assays. The LC50 values were determined by non-linear regression using Prism GraphPad 10.
# (§5) The LC50 and the EC50 were calculated by Probit analysis using GraphPad Prism 10 (San Diego, CA, USA). Both cytotoxicity and leishmanicidal activity were defined by ranges of values of LC50 and EC50 in terms of high, moderate, or low as follows: high cytotoxicity for LC50 values < 100 µM, moderate cytotoxicity for LC50 values > 100 µM but < 200 µM, and low cytotoxicity for LC50 values > 200 µM. […] In addition, the cytotoxicity in U937 macrophages was correlated with the leishmanicidal activity by calculating the Selectivity Index (SI), using the equation: SI = LC50/EC50 (Indrayanto et al. [2021]).
# [2] = tested on: intracellular amastigotes of L. braziliensis; test: In vitro leishmanicidal activity against intracellular amastigotes in infected U-937 macrophages (flow cytometry); type: cell-based, Leishmania braziliensis; conditions: for SI (Selectivity Index = LC50/EC50): LC50 U-937 / EC50 L. braziliensis amastigotes; for EC50: Leishmania braziliensis; for Leishmanicidal activity: class by EC50 on intracellular amastigotes of L. braziliensis
# Method: Infective L. braziliensis (MHOM/CO/88/UA301-eGFP) (Pulido et al. [2012]) were cultured in Novy-MacNeal-Nicolle (NNN) biphasic medium at 26 °C for 3 passages maximum. U-937 cells, prepared as described in the previous section, were adjusted to approximately 3 × 10^5 cells per mL of supplemented RPMI 1640 medium containing […] of PMA to induce cell adherence. One mL was dispensed into each well of a 24-well plate and platters were incubated at 37 °C in % CO2, 95% humidity atmosphere for 72 h. Then, adherent cells were infected with fluorescent promastigotes of L. braziliensis in a 15:1 parasite to cell ratio. Plates were incubated again at 34 °C and % CO2, 95% humidity atmosphere. After 24 h, non-phagocytosed parasites were washed by pipetting phosphate buffered solution (PBS) in the plate at room temperature and 500 µL of fresh complete RPMI 1640 medium was added. Then, 500 µL of each serial dilution of QUE, PIP, CUR, and amphotericin B was added to each well and plates were incubated at 34 °C with % CO2, 95% humidity atmosphere. The EC50, the median effective concentration to induce […] killing of the intracellular amastigotes in infected cells, was measured by Flow cytometry at 488 nm of excitation and 525 nm of emission. After 48 h of incubation, cells were harvested with cold dissociation buffer (1x PBS with 2% EDTA) and the harvested cells were washed with buffer (1 × PBS with 2% FBS), and results were analyzed by FlowJo 10. The EC50 was determined with a non-lineal regression using Prism GraphPad 10.
# as §5
# [3] = tested on: L. braziliensis-induced cutaneous leishmaniasis ulcers; test: Histopathological analysis (H-E) of healed ulcers from treated hamsters; type: in vivo, golden hamsters (Mesocricetus auratus); design: key to Dermis: oedema (grade) / Dermis: granulomatous inflammation (grade) / Epidermis: orthokeratotic hyperkeratosis (grade) / Epidermis: spongiosis (grade) / Epidermis: ulcer (grade) / Dermis: neovascularization (grade) / Dermis: fibroplasia (grade) / Dermis: leukocytic infiltrate (grade): 0, absent; 1, mild; 2, mild to moderate; 3, moderate; 4, moderate to severe; 5, severe; conditions: healed ulcer after topical treatment
# Method: The changes were analyzed under a standard optical microscope.
# L. braziliensis = tested on: L. braziliensis
# Description: Golden hamsters (Mesocricetus auratus) were purchased from Charles River Laboratories (Wilmington MA, USA) and bred under specific pathogen-free conditions at the animal facility unit of the Universidad de Antioquia in Medellín, Colombia. Six- to eight-week-old, male, and female hamsters were used for the experiments. Animal experimentation protocols including handling of the animals, sample collection, and euthanasia were done in compliance of the Center for Diseases Control and Prevention guidelines for Safe Work Practices in Human and Animal Medical Diagnostic Laboratories and ARRIVE guidelines (Percie du Sert et al. [2020b]; Khairani et al. [2022]) and approved by the Institutional Ethical Committee for animal experimentation (Act No. 152 of June 01, 2023) (Percie du Sert et al. [2020a]; Khairani et al. [2022]).
# Hamsters were anesthetized with ketamine (80 mg/kg, i.p.) and xylazine (15 mg/Kg) before infection and then, ∼1 × 10^8 promastigotes in stationary phase (6 days-old growth) were inoculated into the dorsum dermis (Robledo et al. [2012]). When hamsters developed ulcers larger than 12.5 mm^2, hamsters were randomly distributed into 4 groups (n = 6, each): (1) group treated with QUE (1 mg/day), (2) group treated with PIP (2.5 mg/day), (3) group treated with CUR (1.5 mg/day), (4) group treated with meglumine antimoniate (treatment control group, 200 µg/mL, intralesional). No vehicle control group was included in the present study because castor oil additive is a nonionic surfactant commonly used as an excipient in pharmaceutical formulations, particularly in solubilizing poorly water-soluble drugs. It is widely used as an ingredient in cosmetics for its conditioning properties, based on occlusive action, reducing water loss, and having a nourishing effect on the skin, hair, and nails (Marwat et al. [2017]; Khairani et al. [2022]).
# Hamsters were treated daily with 40 µL of the corresponding formulation for 2 weeks, applying it directly over the lesion, while hamsters treated with meglumine antimoniate received treatment three times per week for 4 weeks. Lesion area was measured every week for 90 days with an electronic digital caliper. The body weight gain or loss was supervised every 2 weeks during the study. At the end of the study, hamsters were euthanized with an i.p. injection of ketamine (600 mg/kg) and xylazine (30 mg/kg). The experiments were carried out under normal laboratory lighting conditions. After necropsy, biopsies from healed and unhealed ulcers were removed and fixed in 10% buffered formalin, processed, and stained with hematoxylin–eosin (H-E) stain for histopathology analysis. The changes were analyzed under a standard optical microscope.
# [4] = tested on: L. amazonensis amastigotes; design: method as in Ferreira et al. [2011]; conditions: ref Ferreira et al. [2011], read-out: EC50 for the amastigote stage; cited from earlier work
# macrophages = tested on: macrophages; design: method as in Ferreira et al. [2011]; conditions: ref Ferreira et al. [2011]; cited from earlier work
# U-937 cells = test: MTT cytotoxicity assay in uninfected U-937 macrophages; conditions: class by LC50 in U-937 macrophages
# Method: as §1, §2, §3, §4, §5
# [5] = intracellular amastigotes of L. braziliensis in U-937 macrophages, 48 h, read-out: EC50 (Median Effective Concentration)
# [6] = topical in castor oil daily for 15 days, QUE 1 mg/day, CUR 1.5 mg/day, PIP 2.5 mg/day, n = 6, followed 90 days
# [7] = intralesional 200 µg/mL three times per week for 4 weeks, n = 6
# [8] = intralesional 200 µg/mL, individual hamster
Compound,CC50 at 48 h [1] [µM],SI (Selectivity Index = LC50/EC50) [2],"EC50 [2, 5] [µM]",Leishmanicidal activity [2],Dermis: fibroplasia (grade) [3],Dermis: granulomatous inflammation (grade) [3],Dermis: leukocytic infiltrate (grade) [3],Dermis: neovascularization (grade) [3],Dermis: oedema (grade) [3],Epidermis: orthokeratotic hyperkeratosis (grade) [3],Epidermis: spongiosis (grade) [3],Epidermis: ulcer (grade) [3],therapeutic response (hamsters cured) (L. braziliensis; [6]) [%],other results
"C[C@@H]1[C@H](O)[C@@H](C)/C=C/C=C/C=C/C=C/C=C/C=C/C=C/[C@H](O[C@@H]2O[C@H](C)[C@@H](O)[C@H](N)[C@@H]2O)C[C@@H]2O[C@](O)(C[C@@H](O)C[C@@H](O)[C@H](O)CC[C@@H](O)C[C@@H](O)CC(=O)O[C@H]1C)C[C@H](O)[C@H]2C(=O)O [AMB, Amphotericin B, reference compound]",56.1 ± 5.8,172.7,0.32 ± 0.01,High (high activity corresponds to EC50 values < 50 µM),,,,,,,,,,
"COc1cc(/C=C/C(=O)CC(=O)/C=C/c2ccc(O)c(OC)c2)ccc1O [Curcumin, curcumin]",> 543,> 17.4,30.9 ± 0.3,High (high activity corresponds to EC50 values < 50 µM),2,0,2,4,1,2,1,0,83,"SI (Selectivity Index = LC50/EC50) ([2]; listed as CUR): exceeds 10; EC50 ([2]; U-937, read-out: in vitro antileishmanial activity (EC50 in mass units)): 11.4 ± 0.1 µg/mL; number of hamsters cured (L. braziliensis; topical 1.5 mg/day for 15 days, n = 6): 5 hamsters; treatment failures (L. braziliensis; topical daily for 15 days, n = 6): one hamster failed treatment"
"COc1cccc2c1C(=O)c1c(O)c3c(c(O)c1C2=O)C[C@@](O)(C(=O)CO)C[C@@H]3O[C@H]1C[C@H](N)[C@H](O)[C@H](C)O1 [DOXO, Doxorubicin, reference compound]",1.47 ± 0.06,,,,,,,,,,,,,
"O=C(/C=C/C=C/c1ccc2c(c1)OCO2)N1CCCCC1 [Piperine, piperine]",> 701,> 80,8.76 ± 1.4,High (high activity corresponds to EC50 values < 50 µM),2,0,2,2,1,2,2,0,67,"EC50 [4]: 28 µM; toxicity towards macrophages (macrophages): non-toxicity; Cytotoxicity (U-937 cells): Low (low cytotoxicity for LC50 values > 200 µM); EC50 ([2]; U-937, amastigote stage of L. braziliensis, read-out: in vitro antileishmanial activity (EC50 in mass units)): 2.5 ± 0.4 µg/mL; EC50 ([2]; U-937, read-out: effective concentration (in vitro leishmanicidal activity)): 8 µM"
Castor oil,,,,,,,,,,,,,,"resolution of CL lesions (L. braziliensis; hamster, in vivo): has not shown resolution of the lesions"
meglumine antimoniate [reference compound],,,,,,,,,,,,,,number of hamsters cured (L. braziliensis; [7]): 4 hamsters; therapeutic response (hamsters cured) (L. braziliensis; [7]): 67%; increase of lesion in uncured hamster (L. braziliensis; [8]): 80%; reduction in the lesion size in uncured hamster (L. braziliensis; [8]): 14%
